{"source": "patent US7812042B2", "about": "“Pharmaceutical compositions and therapeutic applications for the use of a novel vitamin B12 derivative, N-acetyl-L-cysteinylcobalamin” (priority 2006, dated 2010)", "key": {"[1]": {"assay": "Decomposition of thiolatocobalamins in PBS at 37° C. monitored by UV/Vis spectrophotometry", "format": "physicochemical", "details": "decomposition in PBS at 37° C.", "procedure": "The decomposition of GSCbl, NACCbl, and HcyCbl in PBS at 37° C. was monitored by UV/Vis spectrophotometry."}, "SK-HEP-1 cells [2]": {"tested_on": "SK-HEP-1 cells", "assay": "Protection of endothelial cells from homocysteine-induced cell death (MTS assay, absorbance at 490 nm; includes comparison of NACCbl, NAC, cyanocobalamin+NAC, free thiols, other cobalamins, folate)", "format": "cell-based, Human", "details": "for Absorbance at 490 nm (n = 6): replicates Y1-Y6", "procedure": "The effect of a constant concentration of NACCbl and GSCbl to protect cells against variable concentrations of homocysteine was assessed. […] Cell viability was determined by MTS® assay. Data shown in FIG. 4 are representative of means ±SE of 6 independent samples. FIG. 4 illustrates that NACCbl (▪) and GSCbl (▴) protect endothelial cells from the effect of homocysteine. […] Cell viability was determined by MTS® assay. […] There was a decrease in protection as homocysteine concentration increased, but there was still ˜60% survival at 50 μM homocysteine.\nThe data was normalized (log 2 and log 10) as shown in FIGS. 16 and 17 and Tables 16 and 17, respectively, below."}, "SK-HEP-1 cells [3]": {"tested_on": "SK-HEP-1 cells", "assay": "Protection of endothelial cells from H2O2-induced cell death (MTS assay)", "format": "cell-based, Human", "procedure": "The effect of increasing concentrations of NACCbl and GSCbl to protect endothelial cells from the effect of H2O2 was assessed. […] Cell viability was determined by MTS® assay. […] Cell viability was determined by MTS® assay. […] Cell viability was determined by MTS® assay."}, "SK-HEP-1 cells [4]": {"tested_on": "SK-HEP-1 cells", "assay": "Protection from apoptosis induced by homocysteine (Caspase-3 activity)", "format": "cell-based, Human", "details": "30 μM pre-treatment two hours, then 30 μM homocysteine two hours", "procedure": "Caspase 3 is activated when cells undergo apoptosis. Caspase-3 assay is a standard for apoptosis assay. Homocysteine is a known inducer of apoptosis. Cells were cultured in 96-well plates for 24 hours and then treated with reagents under test conditions. Cytotoxic agents, H2O2 and etoposide were added to negative control wells. The assay was performed according to the manufacturer's protocol, as follows: Cells were re-suspended in 100 μl of clear media and 50 μl of Caspase-3 substrate solution was immediately added to each test well. […] Cell viability was determined by MTS® assay. […] Cell viability was determined by MTS® assay."}, "[5]": {"details": "2 hours pre-incubation, then 25 μM H2O2 24 hours"}}, "note": "Where “and” joins values, the source holds several entries; their conditions need not be identical. Equal entries are not always repeated."}
{"molecule": "CC(=O)NC(C[S-])C(=O)O.CC1=C2N=C(C=C3N=C(C(C)=C4[N-]C(C(CC(N)=O)C4(C)CCC(=O)NCC(C)OP(=O)([O-])OC4C(CO)OC(n5cnc6cc(C)c(C)cc65)C4O)C4(C)N=C1C(CCC(N)=O)C4(C)CC(N)=O)C(CCC(N)=O)C3(C)C)C(CCC(N)=O)C2(C)CC(N)=O.[Co+3]", "note": "[NACCbl, N-acetyl-L-cysteinylcobalamin]", "values": [{"measurement": "t1/2", "setting": "[1]", "result": "No decomposition within 20 hours"}, {"measurement": "survival", "setting": "SK-HEP-1 cells [2]; 30 μM cobalamin pre-incubation two hours, then 50 μM homocysteine two hours", "result": "~60", "unit": "%"}, {"measurement": "pre-incubation concentration that protected cells from homocysteine-induced cell death", "setting": "SK-HEP-1 cells [2]; 2 hours pre-incubation, then 30 μM homocysteine 24 hours", "result": "≥ 2.0", "unit": "µM"}, {"measurement": "Absorbance at 490 nm, Mean (n = 6)", "setting": "SK-HEP-1 cells [2]; Conc. Hcy 0.000, NACCbl 30 μM, NAC 75 μM", "result": 2.761}, {"measurement": "Absorbance at 490 nm, Mean (n = 6)", "setting": "SK-HEP-1 cells [2]; Conc. Hcy 1.780 (μM), NACCbl 30 μM, NAC 75 μM", "result": 2.673}, {"measurement": "Absorbance at 490 nm, Mean (n = 6)", "setting": "SK-HEP-1 cells [2]; Conc. Hcy 3.125 (μM), NACCbl 30 μM, NAC 75 μM", "result": 2.404}, {"measurement": "Absorbance at 490 nm, Mean (n = 6)", "setting": "SK-HEP-1 cells [2]; Conc. Hcy 6.250 (μM), NACCbl 30 μM, NAC 75 μM", "result": 2.273}, {"measurement": "Absorbance at 490 nm, Mean (n = 6)", "setting": "SK-HEP-1 cells [2]; Conc. Hcy 12.500 (μM), NACCbl 30 μM, NAC 75 μM", "result": 2.142}, {"measurement": "Absorbance at 490 nm, Mean (n = 6)", "setting": "SK-HEP-1 cells [2]; Conc. Hcy 25.000 (μM), NACCbl 30 μM, NAC 75 μM", "result": 1.954}, {"measurement": "Absorbance at 490 nm, Mean (n = 6)", "setting": "SK-HEP-1 cells [2]; Conc. Hcy 50.000 (μM), NACCbl 30 μM, NAC 75 μM", "result": 1.786}, {"measurement": "Absorbance at 490 nm, Mean (n = 6)", "setting": "SK-HEP-1 cells [2]; Conc. Hcy 100.000 (μM), NACCbl 30 μM, NAC 75 μM", "result": 1.685}, {"measurement": "Absorbance at 490 nm, Mean (n = 6)", "setting": "SK-HEP-1 cells [2]; Conc. Hcy 200.000 (μM), NACCbl 30 μM, NAC 75 μM", "result": 1.393}, {"measurement": "Absorbance at 490 nm (n = 6)", "setting": "SK-HEP-1 cells [2]; Conc. of Hcy 0.000, NACCbl 30 μM, NAC 75 μM", "result": "2.885 and 2.698 and 2.821 and 2.771 and 2.691 and 2.700"}, {"measurement": "Absorbance at 490 nm (n = 6)", "setting": "SK-HEP-1 cells [2]; Conc. of Hcy 1.780, NACCbl 30 μM, NAC 75 μM", "result": "2.647 and 2.551 and 2.789 and 2.890 and 2.549 and 2.611"}, {"measurement": "Absorbance at 490 nm (n = 6)", "setting": "SK-HEP-1 cells [2]; Conc. of Hcy 3.125, NACCbl 30 μM", "result": "2.453 and 2.338 and 2.360 and 2.317 and 2.418 and 2.535"}, {"measurement": "Absorbance at 490 nm (n = 6)", "setting": "SK-HEP-1 cells [2]; Conc. of Hcy 6.250, NACCbl 30 μM, NAC 75 μM", "result": "2.410 and 2.400 and 2.322 and 2.201 and 2.115 and 2.187"}, {"measurement": "Absorbance at 490 nm (n = 6)", "setting": "SK-HEP-1 cells [2]; Conc. of Hcy 12.500, NACCbl 30 μM, NAC 75 μM", "result": "2.210 and 2.110 and 2.045 and 2.065 and 2.101 and 2.324"}, {"measurement": "Absorbance at 490 nm (n = 6)", "setting": "SK-HEP-1 cells [2]; Conc. of Hcy 25.000, NACCbl 30 μM, NAC 75 μM", "result": "2.100 and 2.190 and 1.879 and 1.937 and 1.779 and 1.837"}, {"measurement": "Absorbance at 490 nm (n = 6)", "setting": "SK-HEP-1 cells [2]; Conc. of Hcy 50.000, NACCbl 30 μM, NAC 75 μM", "result": "1.678 and 1.832 and 1.881 and 1.730 and 1.740 and 1.855"}, {"measurement": "Absorbance at 490 nm (n = 6)", "setting": "SK-HEP-1 cells [2]; Conc. of Hcy 100.000, NACCbl 30 μM, NAC 75 μM", "result": "1.678 and 1.592 and 1.694 and 1.773 and 1.732 and 1.639"}, {"measurement": "Absorbance at 490 nm (n = 6)", "setting": "SK-HEP-1 cells [2]; Conc. of Hcy 200.000, NACCbl 30 μM, NAC 75 μM", "result": "1.378 and 1.167 and 1.330 and 1.456 and 1.491 and 1.537"}, {"measurement": "protection against homocysteine-induced damage compared with free thiols", "setting": "SK-HEP-1 cells [2]; Hcy 30 μM, NAC 45, GSH 100, NACCbl 12.5, GSCbl 15 μM, with or without folate 25 μM", "result": "superior to the free thiols"}, {"measurement": "protection compared with GSCbl (p<0.001)", "setting": "SK-HEP-1 cells [2]; concentrations below 12.5 μM, 30 μM homocysteine 24 hours", "result": "significantly greater than that provided by GSCbl"}, {"measurement": "prevention of cell death compared with NAC and cyanocobalamin+NAC", "setting": "SK-HEP-1 cells [2]; variable Hcy concentration, NACCbl 30 μM", "result": "superior to either NAC (75 μM) alone or in combination with CNCbl"}, {"measurement": "survival", "setting": "SK-HEP-1 cells [2]; ≧12.5 μM NACCbl 2 hours, then 30 μM homocysteine 24 hours", "result": 80, "unit": "%"}, {"measurement": "protection by NACCbl compared with GSCbl", "setting": "SK-HEP-1 cells [3]; 25 μM H2O2 24 hours", "result": "no difference"}, {"measurement": "concentration required to achieve >80% survival", "setting": "SK-HEP-1 cells [3]; [5]", "result": 100, "unit": "µM"}, {"measurement": "pre-incubation concentration that protected cells from H2O2-induced cell death", "setting": "SK-HEP-1 cells [3]; [5]", "result": "≥ 2.0", "unit": "µM"}, {"measurement": "protection against apoptosis induced by homocysteine", "setting": "SK-HEP-1 cells [4]", "result": "total protection"}]}
